What all share (assay type): biochemical
Experiment [1] has as its target T1, Recombinant human AKR1C3 (17β-HSD5) protein (Homo sapiens, UniProt P42330).
T1 construct: made in house; host or cells: E. coli
T1 sequence (P42330 1-323): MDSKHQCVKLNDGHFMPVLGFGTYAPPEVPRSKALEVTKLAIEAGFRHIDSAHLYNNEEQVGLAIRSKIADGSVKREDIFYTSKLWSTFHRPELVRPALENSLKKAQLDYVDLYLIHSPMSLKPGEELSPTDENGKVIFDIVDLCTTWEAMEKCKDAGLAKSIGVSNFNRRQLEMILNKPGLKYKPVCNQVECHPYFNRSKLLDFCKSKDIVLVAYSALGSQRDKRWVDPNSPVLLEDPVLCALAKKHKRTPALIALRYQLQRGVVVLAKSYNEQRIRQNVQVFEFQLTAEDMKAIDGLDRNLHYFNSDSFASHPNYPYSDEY
Kind of experiment: Inhibition of AKR1C3 (17β-hydroxysteroid dehydrogenase type 5) enzyme, fluorescence assay. To be noted: inhibitor at 500 nM. In outline:
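Percent inhibition at 500 nM compound, derived from substrate conversion; product alcohol measured by fluorescence (ex 420, em 510 nm) against a 1 μM–10 nM standard curve. Reaction: 27 nM recombinant AKR1C3, 1 μM ketone substrate, 1 mM NADPH, phosphate/EDTA buffer pH 7.4, 1% DMSO, RT for 60–120 min.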

Experiment [2] addresses T2, 17β-Hydroxysteroid Dehydrogenase Type 2 Enzyme (17β-HSD2) (Homo sapiens, UniProt P37059).
T2 construct: made in house; host or cells: Sf-9 insect cells (baculovirus)
T2 sequence (P37059 1-387): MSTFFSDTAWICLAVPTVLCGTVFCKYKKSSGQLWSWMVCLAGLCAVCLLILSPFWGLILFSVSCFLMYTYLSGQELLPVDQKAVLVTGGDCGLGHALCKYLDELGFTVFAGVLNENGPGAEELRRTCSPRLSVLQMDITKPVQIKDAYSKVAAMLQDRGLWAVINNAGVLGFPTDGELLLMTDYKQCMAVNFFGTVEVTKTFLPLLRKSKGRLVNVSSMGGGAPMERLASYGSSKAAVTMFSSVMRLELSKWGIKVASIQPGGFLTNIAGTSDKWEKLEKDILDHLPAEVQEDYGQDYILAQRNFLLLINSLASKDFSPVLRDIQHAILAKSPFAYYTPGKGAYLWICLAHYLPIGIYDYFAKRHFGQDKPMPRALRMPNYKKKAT
Kind of experiment: Inhibition of the 17β-hydroxysteroid dehydrogenase type 2 enzyme, 3H-testosterone conversion. Conditions: inhibitor at 10 μM. In outline: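 Single-point screen at 10 μM inhibitor, 1% DMSO: Sf-9-expressed human enzyme (105 nM), NAD 1 mM, ³H-labelled testosterone 56.25 nM, pH 8.5 phosphate/EDTA buffer, 30 min, room temperature. After TCA quench, substrate and product radioactivity quantified by UPLC with scintillation detection; inhibition percent from conversion.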

The target in experiment [3] is T3, Recombinant human aldo-keto reductase family 1 member C2 (AKR1C2) protein (Homo sapiens, UniProt P52895).
T3 construct: made in house; host or cells: Sf-9 insect cells (baculovirus)
T3 sequence (P52895 1-323): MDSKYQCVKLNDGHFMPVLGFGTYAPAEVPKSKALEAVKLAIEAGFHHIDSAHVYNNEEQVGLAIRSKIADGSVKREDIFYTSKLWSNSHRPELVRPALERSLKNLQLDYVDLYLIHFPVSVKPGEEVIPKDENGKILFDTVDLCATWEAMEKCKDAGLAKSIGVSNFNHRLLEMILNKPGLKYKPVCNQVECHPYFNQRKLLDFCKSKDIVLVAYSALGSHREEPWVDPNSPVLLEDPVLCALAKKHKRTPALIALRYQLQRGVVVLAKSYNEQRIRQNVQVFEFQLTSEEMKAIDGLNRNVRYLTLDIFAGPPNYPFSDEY
Put plainly: Inhibition of the aldo-keto reductase family 1 member C2, 3H-dihydrotestosterone conversion. Conditions: inhibitor at 10 μM. The method, boiled down: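 Single-point screen at 10 μM inhibitor, 1% DMSO: [3H]DHT (6.25 nM) reduction to 3α-diol by baculovirus-made AKR1C2 (13.6 nM), pH 7.4 phosphate buffer, 1 mM NADPH, 37 °C for 45 min. Radio-UPLC quantified product versus substrate to give percent inhibition.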

This note sets out measurements from patent publication US12637471B2, “Heterocyclic compounds, compositions, methods of preparation and uses thereof” (Organon R&D Finland Ltd, priority 2021, dated 2026).

A word on the inhibition: it is the drop in the measured response relative to a control, in per cent. In the case of `N#CC(=C1CCN(C(=O)N2CCc3[nH]ncc3C2)CC1)c1ccc(Cl)s1` [Compound 120, 2-(5-chlorothiophen-2-yl)-2-(1-(4,5,6,7-tetrahydro-1H-pyrazolo[4,3-c]pyridine-5-carbonyl)piperidin-4-ylidene)acetonitrile], the inhibition at 0.5 µM in experiment [1] came out at 99%. The inhibition at 10 µM amounted to 20% in experiment [2] and 43% in experiment [3].

With `CCOC1CCN(C(=O)N2CCC(=C(C#N)c3ccc(F)cc3)CC2)CC1` [Compound 20, 2-(1-(4-ethoxypiperidine-1-carbonyl)piperidin-4-ylidene)-2-(4-fluorophenyl)acetonitrile], the inhibition at 0.5 µM in experiment [1] came out at 97%. For the same molecule, the inhibition at 10 µM in experiment [2] was 9%; in experiment [3], 2%.

In the case of `CCN(CC)C(=O)N1CCC(=C(C#N)c2ccc(OC(F)(F)F)cc2)CC1` [Compound 170, 4-(cyano(4-(trifluoromethoxy)phenyl)methylene)-N,N-diethylpiperidine-1-carboxamide], in experiment [1], the inhibition at 0.5 µM turned out to be 98%. Moreover, the figures for the inhibition at 10 µM in experiment [2] and in experiment [3] were 28% and 4%, respectively.

On to `N#CC(=C1CCN(C(=O)N2CCC(CCO)CC2)CC1)c1ccc(Cl)cc1` [Compound 131, 2-(4-chlorophenyl)-2-(1-(4-(2-hydroxyethyl)piperidine-1-carbonyl)piperidin-4-ylidene) acetonitrile], for which, in experiment [1], the inhibition at 0.5 µM turned out to be 98%. Also, the results for the inhibition at 10 µM in experiment [2] and in experiment [3] were 13% and 8%, respectively.

Consider `N#CC(=C1CCN(C(=O)N2CCC(CO)CC2)CC1)c1cc(F)cc(F)c1` [Compound 50, 2-(3,5-difluorophenyl)-2-(1-(4-(hydroxymethyl)piperidine-1-carbonyl)piperidin-4-ylidene)acetonitrile], for which the inhibition at 0.5 µM in experiment [1] is 97%. Also, the inhibition at 10 µM in experiment [2] is 12%; in experiment [3] it was 16%.

Consider `CO[C@@H]1CCN(C(=O)N2CCC(=C(C#N)c3ccc(F)cc3)CC2)C1` [Compound 7, (R)-2-(4-fluorophenyl)-2-(1-(3-methoxypyrrolidine-1-carbonyl)piperidin-4-ylidene)acetonitrile], for which, in experiment [1], the inhibition at 0.5 µM turned out to be 95%. Besides, the inhibition at 10 µM in experiment [2] was found to be 1%; in experiment [3], 9%.

As to `CC(=O)N1CCN(C(=O)N2CCC(=C(C#N)c3ccc(Cl)cc3)CC2)CC1` [Compound 130, 2-(1-(4-acetylpiperazine-1-carbonyl)piperidin-4-ylidene)-2-(4-chlorophenyl)acetonitrile], the inhibition at 0.5 µM in experiment [1] worked out at 97%. Besides, the inhibition at 10 µM is 12% in experiment [2] and 0% in experiment [3].

In the case of `N#CC(=C1CCN(C(=O)N2CCc3cccnc32)CC1)c1ccc(F)cc1` [Compound 30, 2-(1-(2,3-dihydro-1H-pyrrolo[2,3-b]pyridine-1-carbonyl)piperidin-4-ylidene)-2-(4-fluorophenyl)acetonitrile], in experiment [1], the inhibition at 0.5 µM is 95%. The inhibition at 10 µM in experiment [2] is 14%; in experiment [3], 15%.

On to `N#CC(=C1CCN(C(=O)N2CCC(S(N)(=O)=O)CC2)CC1)c1cccc(Cl)c1` [Compound 99, 1-(4-((3-chlorophenyl)(cyano)methylene)piperidine-1-carbonyl)piperidine-4-sulfonamide], for which the inhibition at 0.5 µM in experiment [1] was 96%. The figures for the inhibition at 10 µM in experiment [2] and in experiment [3] were 18% and 16%, respectively.

As to `N#CC(=C1CCN(C(=O)N2CCC(O)CC2)CC1)c1ccc(F)cc1` [Compound 4, 2-(4-fluorophenyl)-2-(1-(4-hydroxypiperidine-1-carbonyl)piperidin-4-ylidene)acetonitrile], in experiment [1], the inhibition at 0.5 µM worked out at 99%. The inhibition at 10 µM is 8% in experiment [2] and 0% in experiment [3].

Turning to `N#CC(=C1CCN(C(=O)N2CCn3cncc3C2)CC1)c1cccc2[nH]ncc12` [Compound 61, 2-(1H-indazol-4-yl)-2-(1-(5,6,7,8-tetrahydroimidazo[1,5-a]pyrazine-7-carbonyl)piperidin-4-ylidene)acetonitrile], the inhibition at 0.5 µM in experiment [1] stood at 99%. Moreover, the inhibition at 10 µM worked out at 30% in experiment [2] and 7% in experiment [3].

For the molecule `N#CC(=C1CCN(C(=O)N2Cc3ccccc3C2)CC1)c1ccc(F)cc1` [Compound 11, 2-(4-fluorophenyl)-2-(1-(isoindoline-2-carbonyl)piperidin-4-ylidene)acetonitrile], the inhibition at 0.5 µM in experiment [1] was found to be 96%. Further, the inhibition at 10 µM stood at 24% in experiment [2] and 17% in experiment [3].

Turning to `COC1CCN(C(=O)N2CCC(=C(C#N)c3ccc(Cl)cn3)CC2)CC1` [Compound 81, 2-(5-chloropyridin-2-yl)-2-(1-(4-methoxypiperidine-1-carbonyl)piperidin-4-ylidene)acetonitrile], in experiment [1], the inhibition at 0.5 µM came to 95%. The inhibition at 10 µM in experiment [2] was 10%; in experiment [3] it was -7%.

For `N#CC(=C1CCN(C(=O)N2CCC(O)CC2)CC1)c1cc(F)cc(F)c1` [Compound 58, 2-(3,5-difluorophenyl)-2-(1-(4-hydroxypiperidine-1-carbonyl)piperidin-4-ylidene)acetonitrile], in experiment [1], the inhibition at 0.5 µM amounted to 93%. In addition, the inhibition at 10 µM in experiment [2] is 21%; in experiment [3] it was 6%.

Consider `N#CC(=C1CCN(C(=O)N2CCc3sccc3C2)CC1)c1ccc(Cl)cc1` [Compound 47], for which the inhibition at 0.5 µM in experiment [1] is 103%. Also, the inhibition at 10 µM in experiment [2] was 20%; in experiment [3] it was 9%.

Consider `N#CC(=C1CCN(C(=O)N2CCCC(O)CC2)CC1)c1ccc(F)cc1` (stereo not drawn) [Compound 107, 2-(4-fluorophenyl)-2-(1-(4-hydroxyazepane-1-carbonyl)piperidin-4-ylidene)acetonitrile], for which the inhibition at 0.5 µM in experiment [1] came out at 92%. In addition, the inhibition at 10 µM in experiment [2] was -1%; in experiment [3], 14%.

As for `N#CC(=C1CCN(C(=O)N2CCC(S(N)(=O)=O)CC2)CC1)c1ccc(C(F)(F)F)cc1` [Compound 148, 1-(4-(cyano(4-(trifluoromethyl)phenyl)methylene)piperidine-1-carbonyl)piperidine-4-sulfonamide], in experiment [1], the inhibition at 0.5 µM stood at 90%. Besides, the figures for the inhibition at 10 µM in experiment [2] and in experiment [3] were 7% and 6%, respectively.

Regarding `N#CC(=C1CCN(C(=O)N2CCc3sccc3C2)CC1)c1ccc(F)cc1` [Compound 108, 2-(4-fluorophenyl)-2-(1-(4,5,6,7-tetrahydrothieno[3,2-c]pyridine-5-carbonyl)piperidin-4-ylidene)acetonitrile], the inhibition at 0.5 µM in experiment [1] is 98%. The inhibition at 10 µM in experiment [2] is -11%; in experiment [3], 21%.

With `N#CC(=C1CCN(C(=O)N2CCc3nocc3C2)CC1)c1cc(F)cc(F)c1` [Compound 158, 2-(3,5-difluorophenyl)-2-(1-(4,5,6,7-tetrahydroisoxazolo[4,3-c]pyridine-5-carbonyl)piperidin-4-ylidene)acetonitrile], the inhibition at 0.5 µM in experiment [1] amounted to 101%. The inhibition at 10 µM is -4% in experiment [2] and 22% in experiment [3].

Consider `N#CC(=C1CCN(C(=O)N2CCn3cncc3C2)CC1)c1ccc(F)cc1` [Compound 27, 2-(4-fluorophenyl)-2-(1-(5,6,7,8-tetrahydroimidazo[1,5-a]pyrazine-7-carbonyl)piperidin-4-ylidene)acetonitrile], for which the inhibition at 0.5 µM in experiment [1] is 98%. Further, the inhibition at 10 µM in experiment [2] worked out at 7%; in experiment [3], 16%.
